Non-standard residues stand in square brackets, D forms with d. Residues, ends and D or L forms follow the SMILES beside them. ξ: configuration not given here. Ala(4-thiazolyl) = N[C@@H](Cc1cscn1)C(=O)O; NMePhe(4-F) = CN[C@@H](Cc1ccc(F)cc1)C(=O)O; Phe(4-Cl) = N[C@@H](Cc1ccc(Cl)cc1)C(=O)O; Phe(4-F) = N[C@@H](Cc1ccc(F)cc1)C(=O)O; NMeThr(3ξ) = CN[C@H](C(=O)O)C(C)O; NMeF = CN[C@@H](Cc1ccccc1)C(=O)O; Tle = CC(C)(C)[C@H](N)C(=O)O; hSer = N[C@@H](CCO)C(=O)O; NMeA = CN[C@@H](C)C(=O)O; dNMeA = CN[C@H](C)C(=O)O; Nme = COCCNCC(=O)O
Key:
MOLM-13 cells = experiment: Cellular fluorescence assay (resazurin, 72 hours); format: cell-based
Method: MOLM-13 cells were grown in suspension in T75 flasks in RPMI medium with 10% fetal bovine serum (FBS) at 37° C. with 5% CO2. 40 μL of MOLM-13 cells were plated into columns 1-22 of black, clear bottom, 384 well plates at a density of 1,500 cells per well in PRMI with 10% FBS. Columns 23 and 24 were filled with 40 μL of media as a positive control. 100 nL of compounds dissolved in DMSO were pin transferred into columns 3-22 of the 384 well plate. Columns 1 and 2 served as negative control wells. Plates were incubated for 72 hours at 37° C. with 5% CO2. After incubation, the cells were given 10 μL of 2 mM Resazurin in RPMI with 10% FBS and incubated for 3 hours. The fluorescence intensity was read on a Molecular Devices SpectraMax i3x plate reader (Excitation wavelength=535 nm, Emission wavelength=585 nm).

Human MDM2 (HDM2) 1-116 = target: T1, Human MDM2 (HDM2) 1-116 (Homo sapiens, UniProt Q00987); experiment: Fluorescence polarization assay 2, MDM2 (Table 4); format: binding; conditions: Table 4; fluorescence polarization; read-out: MDM2 IC50
T1 construct: Human MDM2 (HDM2) 1-116
Method: (§1) Compounds dissolved in DMSO were pin transferred (˜100-200 nL) to the 384 well plate containing the MDM2/p53 solution. After incubation for 60 minutes, the fluorescence polarization was read on a Molecular Devices SpectraMax plate reader equipped with a Fluorescein FP cartridge. In addition to probe alone (positive control) and probe/MDM2 (negative control), a titration of linear p53(18-26) was included on every plate as an additional control. IC50 values were fit using either Prism or Collaborative Drug Discovery.

Human MDM4 (HDM4) 1-114 = target: T2, Human MDM4 (HDM4) 1-114 (Homo sapiens, UniProt O15151); experiment: Fluorescence polarization assay 2, MDM4 (Table 4); format: binding; conditions: Table 4; fluorescence polarization; read-out: MDM4 IC50
T2 construct: Human MDM4 (HDM4) 1-114
T2 sequence (O15151 1-114): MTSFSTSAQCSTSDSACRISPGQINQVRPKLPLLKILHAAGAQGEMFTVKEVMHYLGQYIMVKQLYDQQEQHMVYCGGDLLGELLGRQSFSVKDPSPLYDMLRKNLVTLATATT
Method: as §1, with “MDM4/p53” for “MDM2/p53”, “probe/MDM4” for “probe/MDM2”

[1] = Pharmacokinetic parameters of Compound 35, intravenous, mice; format: in vivo; conditions: mouse, 1 mg/kg, plasma
Method: Mice were treated intravenously with Compound 35 (1 mg/kg) and plasma was collected at various timepoints to determine pharmacokinetic parameters. The change in mean plasma concentration over time is shown in FIG. 5, and all pharmacokinetic parameters obtained are summarized in Table 2: […]

T1 sequence (Q00987 1-116): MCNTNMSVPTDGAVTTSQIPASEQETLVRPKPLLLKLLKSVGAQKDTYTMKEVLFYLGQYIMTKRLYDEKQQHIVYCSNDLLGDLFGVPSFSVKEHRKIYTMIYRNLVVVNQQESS

Row | IC50 (Human MDM2 (HDM2) 1-116) [nM] | IC50 (Human MDM4 (HDM4) 1-114) [nM] | AUC(0-inf) [1] [ng·h/mL] | AUC(0-t) [1] [ng·h/mL] | Cmax [1] [ng/mL] | MRT inf [1] [min] | MRT last [1] [min] | Tmax [1] [min] | clearance [1] [mL/min/kg] | half-life [1] [min] | Vd ([1]; read-out: Vss) [L/kg] | SMILES | IC50 (MOLM-13 cells) [nM]
1 | – | – | – | – | – | – | – | – | – | – | – | COCC[C@@H]1NC(=O)[C@H]2CCCN2C(=O)[C@H](Cc2ccccc2)N(C)C(=O)[C@H](Cc2ccc(Cl)cc2)NC(=O)[C@H]([C@@H](C)O)NC(=O)[C@H](Cc2ccc(F)cc2)NC(=O)CN(CCOC)C(=O)[C@@H](C)N(C)C(=O)[C@H](Cc2cscn2)NC(=O)[C@H](C)N(C)C1=O [Compound 39, COCC[C@@H]1NC(=O)[C@H]2CCCN2C(=O)[C@H](CC2=CC=CC=C2)N(C)C(=O)[C@H](CC2=CC=C(Cl)C=C2)NC(=O)[C@@H](NC(=O)[C@H](CC2=CC=C(F)C=C2)NC(=O)CN(CCOC)C(=O)[C@@H](C)N(C)C(=O)[C@H](CC2=CSC=N2)NC(=O)[C@H](C)N(C)C1=O)C(C)O] (cyclo([hSer](Me)[NMeA][Ala(4-thiazolyl)][dNMeA][Nme][Phe(4-F)]T[Phe(4-Cl)][NMeF][dP])) | 100 to 150
2 | – | – | – | – | – | – | – | – | – | – | – | COCC[C@@H]1NC(=O)[C@H]2CCCN2C(=O)[C@H](Cc2ccc(F)cc2)N(C)C(=O)[C@H](Cc2ccc(Cl)cc2)NC(=O)[C@H](C(C)O)N(C)C(=O)[C@H](Cc2ccc(F)cc2)NC(=O)CN(CCOC)C(=O)[C@@H](C)N(C)C(=O)[C@H](Cc2cscn2)NC(=O)[C@H](C)N(C)C1=O (stereo partly shown) [Compound 45, COCC[C@@H]1NC(=O)[C@H]2CCCN2C(=O)[C@H](Cc2ccc(F)cc2)N(C)C(=O)[C@H](Cc2ccc(Cl)cc2)NC(=O)[C@H]([C@@@H](C)O)N(C)C(=O)[C@H](Cc2ccc(F)cc2)NC(=O)CN(CCOC)C(=O)[C@@H](C)N(C)C(=O)[C@H](Cc2cscn2)NC(=O)[C@H](C)N(C)C1=O] (cyclo([Ala(4-thiazolyl)][dNMeA][Nme][Phe(4-F)][NMeThr(3ξ)][Phe(4-Cl)][NMePhe(4-F)][dP][hSer](Me)[NMeA])) | 50 to 100
3 | 50 to 100 | > 150 | 1040 | 1040 | 3570 | 9 | 7.8 | 4.8 | 16 | 62.4 | 0.14 | COCC[C@@H]1NC(=O)[C@H]2CCCN2C(=O)[C@H](Cc2ccccc2)N(C)C(=O)[C@H](Cc2ccc(Cl)cc2)NC(=O)[C@H](C(C)(C)C)NC(=O)[C@H](Cc2ccc(F)cc2)NC(=O)CN(CCOC)C(=O)[C@@H](C)N(C)C(=O)[C@H](Cc2cscn2)NC(=O)[C@H](C)N(C)C1=O [Compound 35, COCC[C@@H]1NC(=O)[C@H]2CCCN2C(=O)[C@H](CC2=CC=CC=C2)N(C)C(=O)[C@H](CC2=CC=C(Cl)C=C2)NC(=O)[C@@H](NC(=O)[C@H](CC2=CC=C(F)C=C2)NC(=O)CN(CCOC)C(=O)[C@@H](C)N(C)C(=O)[C@H](CC2=CSC=N2)NC(=O)[C@H](C)N(C)C1=O)C(C)(C)C] (cyclo([Ala(4-thiazolyl)][dNMeA][Nme][Phe(4-F)][Tle][Phe(4-Cl)][NMeF][dP][hSer](Me)[NMeA])) | –
